target: T1, Polyunsaturated fatty acid lipoxygenase ALOX15 (Oryctolagus cuniculus, UniProt P12530); assay: biochemical; assay type: tissue-based, Reticulocytes; settings: reticulocytes;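 further: inhibition of 15-lipoxygenase enzyme activity measured with linoleic acid as the substrate; in other assays of this panel Not Active means under 50% inhibition at 10 µM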
T1 sequence (P12530 whole entry): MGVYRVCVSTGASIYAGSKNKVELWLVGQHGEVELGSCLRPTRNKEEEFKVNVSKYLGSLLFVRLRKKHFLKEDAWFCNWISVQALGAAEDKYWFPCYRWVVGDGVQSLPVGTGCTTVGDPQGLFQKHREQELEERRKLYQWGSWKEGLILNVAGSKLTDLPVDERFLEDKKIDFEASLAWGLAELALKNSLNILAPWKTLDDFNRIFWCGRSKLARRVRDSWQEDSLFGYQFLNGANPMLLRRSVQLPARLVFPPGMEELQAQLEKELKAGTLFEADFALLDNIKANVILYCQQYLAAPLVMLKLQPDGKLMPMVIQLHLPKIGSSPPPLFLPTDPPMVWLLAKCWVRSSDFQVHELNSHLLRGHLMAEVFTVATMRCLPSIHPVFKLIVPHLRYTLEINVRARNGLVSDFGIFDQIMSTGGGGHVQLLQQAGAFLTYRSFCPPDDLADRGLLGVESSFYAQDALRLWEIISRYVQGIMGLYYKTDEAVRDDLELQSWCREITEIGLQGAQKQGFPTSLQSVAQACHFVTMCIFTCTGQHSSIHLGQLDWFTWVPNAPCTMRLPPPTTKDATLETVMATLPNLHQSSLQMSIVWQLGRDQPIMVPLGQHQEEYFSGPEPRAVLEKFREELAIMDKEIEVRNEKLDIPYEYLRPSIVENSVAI

SMILES	IC50
CC(=O)S[C@@H]1CC2=CC(=O)CC[C@]2(C)[C@H]2CC[C@@]3(C)[C@@H](CC[C@@]34CCC(=O)O4)[C@H]12 [SPIRONOLACTONE]	Not Active
CC(C)[C@H](N)C(=O)OCCOCn1cnc2c(=O)nc(N)[nH]c21 [VALACYCLOVIR]	Not Active

target: T2, Adenosine receptor A1 (Homo sapiens, UniProt P30542); assay: not given; assay type: cell membranes, CHO, Membrane; settings: cho;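 further: radioligand binding assay at the adenosine A1 receptor, with DPCPX serving as the labelled ligand; in other assays of this panel Not Active means under 50% inhibition at 10 µM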
T2 sequence (P30542 whole entry): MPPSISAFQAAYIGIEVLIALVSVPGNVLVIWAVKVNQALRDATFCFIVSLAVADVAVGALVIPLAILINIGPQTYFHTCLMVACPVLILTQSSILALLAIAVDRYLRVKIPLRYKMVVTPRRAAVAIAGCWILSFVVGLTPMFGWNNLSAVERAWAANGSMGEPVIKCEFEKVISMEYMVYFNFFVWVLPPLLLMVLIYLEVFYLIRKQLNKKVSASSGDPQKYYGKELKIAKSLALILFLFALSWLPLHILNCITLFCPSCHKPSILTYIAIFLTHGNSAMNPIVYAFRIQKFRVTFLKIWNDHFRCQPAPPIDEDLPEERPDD

SMILES	IC50
CC(=O)S[C@@H]1CC2=CC(=O)CC[C@]2(C)[C@H]2CC[C@@]3(C)[C@@H](CC[C@@]34CCC(=O)O4)[C@H]12 [SPIRONOLACTONE]	Not Active
CC(C)[C@H](N)C(=O)OCCOCn1cnc2c(=O)nc(N)[nH]c21 [VALACYCLOVIR]	Not Active

tested on: not listed separately; assay: DRUGMATRIX: Calcium Channel Type L, Dihydropyridine radioligand binding (ligand: [3H] Nitrendipine); assay type: cell membranes, Rattus norvegicus, Wistar, Cerebral cortex, Membrane; settings: Not Active = under 50% inhibition at 10 µM

SMILES	IC50	Ki
CC(=O)S[C@@H]1CC2=CC(=O)CC[C@]2(C)[C@H]2CC[C@@]3(C)[C@@H](CC[C@@]34CCC(=O)O4)[C@H]12 [SPIRONOLACTONE]	Not Active	Not Active
CC(C)[C@H](N)C(=O)OCCOCn1cnc2c(=O)nc(N)[nH]c21 [VALACYCLOVIR]	Not Active	Not Active

target: D(3) dopamine receptor (Homo sapiens, UniProt P35462); assay: DRUGMATRIX: Dopamine D3 radioligand binding (ligand: [3H] Spiperone); assay type: cell membranes, CHO, Membrane; settings: cho
Sequence (P35462 whole entry): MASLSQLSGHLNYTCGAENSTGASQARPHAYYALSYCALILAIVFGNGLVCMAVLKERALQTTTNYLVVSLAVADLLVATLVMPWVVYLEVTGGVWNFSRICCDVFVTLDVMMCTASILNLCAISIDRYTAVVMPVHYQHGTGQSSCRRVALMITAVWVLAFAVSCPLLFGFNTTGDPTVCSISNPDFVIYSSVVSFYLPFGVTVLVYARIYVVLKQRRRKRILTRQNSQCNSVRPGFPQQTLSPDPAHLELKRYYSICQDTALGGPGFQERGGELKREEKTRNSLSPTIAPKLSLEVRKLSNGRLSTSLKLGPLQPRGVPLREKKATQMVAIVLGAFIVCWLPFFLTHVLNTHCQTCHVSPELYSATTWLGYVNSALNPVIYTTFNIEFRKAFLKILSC

SMILES	IC50
CC(=O)S[C@@H]1CC2=CC(=O)CC[C@]2(C)[C@H]2CC[C@@]3(C)[C@@H](CC[C@@]34CCC(=O)O4)[C@H]12 [SPIRONOLACTONE]	Not Active
CC(C)[C@H](N)C(=O)OCCOCn1cnc2c(=O)nc(N)[nH]c21 [VALACYCLOVIR]	Not Active

tested on: not listed separately; assay: DRUGMATRIX: beta-Lactamase enzyme inhibition (substrate: Nitrocefin); parameters: species or system Bacillus cereus; settings: Not Active = under 50% inhibition at 10 µM

SMILES	IC50	Ki
CC(=O)S[C@@H]1CC2=CC(=O)CC[C@]2(C)[C@H]2CC[C@@]3(C)[C@@H](CC[C@@]34CCC(=O)O4)[C@H]12 [SPIRONOLACTONE]	Not Active	Not Active
CC(C)[C@H](N)C(=O)OCCOCn1cnc2c(=O)nc(N)[nH]c21 [VALACYCLOVIR]	Not Active	Not Active

target: T3, Cholecystokinin receptor type A (Homo sapiens, UniProt P32238); assay: not given; assay type: cell membranes, Membrane; settings: 1321-n1; further: in other assays of this panel Not Active means under 50% inhibition at 10 µM
T3 sequence (P32238 whole entry): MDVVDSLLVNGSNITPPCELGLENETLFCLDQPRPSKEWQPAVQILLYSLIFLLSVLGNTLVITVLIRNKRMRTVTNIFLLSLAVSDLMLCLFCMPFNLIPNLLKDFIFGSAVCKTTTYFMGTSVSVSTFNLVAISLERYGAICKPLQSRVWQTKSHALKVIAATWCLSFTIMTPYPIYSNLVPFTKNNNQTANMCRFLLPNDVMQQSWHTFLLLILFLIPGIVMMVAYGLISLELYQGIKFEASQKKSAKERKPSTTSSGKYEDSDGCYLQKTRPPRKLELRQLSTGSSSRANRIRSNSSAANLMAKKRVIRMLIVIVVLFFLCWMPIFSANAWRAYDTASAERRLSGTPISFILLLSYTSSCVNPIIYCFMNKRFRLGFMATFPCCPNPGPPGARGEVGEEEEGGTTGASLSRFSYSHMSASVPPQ

SMILES	IC50
CC(=O)S[C@@H]1CC2=CC(=O)CC[C@]2(C)[C@H]2CC[C@@]3(C)[C@@H](CC[C@@]34CCC(=O)O4)[C@H]12 [SPIRONOLACTONE]	Not Active
CC(C)[C@H](N)C(=O)OCCOCn1cnc2c(=O)nc(N)[nH]c21 [VALACYCLOVIR]	Not Active

target: Beta-2 adrenergic receptor (Homo sapiens, UniProt P07550); assay: DRUGMATRIX: Adrenergic beta2 radioligand binding (ligand: [3H] CGP-12177); assay type: cell membranes, Membrane; settings: cho; Not Active = under 50% inhibition at 10 µM
Sequence (P07550 whole entry): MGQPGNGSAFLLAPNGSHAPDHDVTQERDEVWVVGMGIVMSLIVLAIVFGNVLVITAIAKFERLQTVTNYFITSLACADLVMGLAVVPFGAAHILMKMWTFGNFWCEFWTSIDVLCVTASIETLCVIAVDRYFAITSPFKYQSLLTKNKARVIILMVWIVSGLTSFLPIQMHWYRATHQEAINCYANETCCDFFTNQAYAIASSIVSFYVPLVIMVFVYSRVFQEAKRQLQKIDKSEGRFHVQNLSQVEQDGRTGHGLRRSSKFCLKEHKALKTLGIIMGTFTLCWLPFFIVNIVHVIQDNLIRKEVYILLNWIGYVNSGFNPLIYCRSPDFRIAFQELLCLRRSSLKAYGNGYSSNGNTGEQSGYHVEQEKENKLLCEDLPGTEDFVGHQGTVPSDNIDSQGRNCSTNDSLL

SMILES	IC50
CC(=O)S[C@@H]1CC2=CC(=O)CC[C@]2(C)[C@H]2CC[C@@]3(C)[C@@H](CC[C@@]34CCC(=O)O4)[C@H]12 [SPIRONOLACTONE]	Not Active
CC(C)[C@H](N)C(=O)OCCOCn1cnc2c(=O)nc(N)[nH]c21 [VALACYCLOVIR]	Not Active

tested on: not listed separately; assay: DRUGMATRIX: Atrial Natriuretic Factor (ANF) radioligand binding (ligand: [125I] ANF (rat)); assay type: cell membranes, Cavia porcellus, Dunkin-Hartley, Adrenal gland, Membrane; settings: Not Active = under 50% inhibition at 10 µM

SMILES	IC50	Ki
CC(=O)S[C@@H]1CC2=CC(=O)CC[C@]2(C)[C@H]2CC[C@@]3(C)[C@@H](CC[C@@]34CCC(=O)O4)[C@H]12 [SPIRONOLACTONE]	Not Active	Not Active
CC(C)[C@H](N)C(=O)OCCOCn1cnc2c(=O)nc(N)[nH]c21 [VALACYCLOVIR]	Not Active	Not Active

target: Substance-P receptor (Homo sapiens, UniProt P25103); assay: not given; assay type: cell membranes, CHO, Membrane; settings: cho; further: in other assays of this panel Not Active means under 50% inhibition at 10 µM
Sequence (P25103 whole entry): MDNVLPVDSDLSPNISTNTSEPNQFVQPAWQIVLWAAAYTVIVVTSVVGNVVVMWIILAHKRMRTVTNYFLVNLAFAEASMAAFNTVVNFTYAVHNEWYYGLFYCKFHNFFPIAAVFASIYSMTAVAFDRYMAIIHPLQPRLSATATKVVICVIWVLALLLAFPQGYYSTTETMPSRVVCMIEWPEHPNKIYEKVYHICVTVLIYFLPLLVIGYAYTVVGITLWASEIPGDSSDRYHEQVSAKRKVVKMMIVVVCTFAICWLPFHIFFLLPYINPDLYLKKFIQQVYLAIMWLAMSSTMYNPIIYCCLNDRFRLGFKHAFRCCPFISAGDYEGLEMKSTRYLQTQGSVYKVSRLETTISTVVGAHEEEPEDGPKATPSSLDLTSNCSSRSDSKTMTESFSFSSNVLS

SMILES	IC50
CC(=O)S[C@@H]1CC2=CC(=O)CC[C@]2(C)[C@H]2CC[C@@]3(C)[C@@H](CC[C@@]34CCC(=O)O4)[C@H]12 [SPIRONOLACTONE]	Not Active
CC(C)[C@H](N)C(=O)OCCOCn1cnc2c(=O)nc(N)[nH]c21 [VALACYCLOVIR]	Not Active

target: 5-hydroxytryptamine receptor 2B (Homo sapiens, UniProt P41595); assay: not given; assay type: cell membranes, CHO-K1, Membrane; settings: cho-k1; further: in other assays of this panel Not Active means under 50% inhibition at 10 µM
Sequence (P41595 whole entry): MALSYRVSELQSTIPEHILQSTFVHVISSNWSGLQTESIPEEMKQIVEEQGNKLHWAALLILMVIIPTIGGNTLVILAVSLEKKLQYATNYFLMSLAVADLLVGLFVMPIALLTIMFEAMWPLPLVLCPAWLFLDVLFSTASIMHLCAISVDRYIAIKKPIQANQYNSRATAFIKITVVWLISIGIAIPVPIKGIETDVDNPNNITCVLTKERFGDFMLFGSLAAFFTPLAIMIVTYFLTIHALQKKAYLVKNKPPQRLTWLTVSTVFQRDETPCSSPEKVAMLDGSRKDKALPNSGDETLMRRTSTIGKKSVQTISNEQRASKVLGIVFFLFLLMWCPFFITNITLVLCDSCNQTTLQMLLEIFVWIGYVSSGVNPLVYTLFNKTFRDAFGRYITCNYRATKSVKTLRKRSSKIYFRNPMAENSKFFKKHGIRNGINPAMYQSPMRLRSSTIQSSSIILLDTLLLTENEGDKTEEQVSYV

SMILES	IC50
CC(=O)S[C@@H]1CC2=CC(=O)CC[C@]2(C)[C@H]2CC[C@@]3(C)[C@@H](CC[C@@]34CCC(=O)O4)[C@H]12 [SPIRONOLACTONE]	Not Active
CC(C)[C@H](N)C(=O)OCCOCn1cnc2c(=O)nc(N)[nH]c21 [VALACYCLOVIR]	Not Active

target: Vascular endothelial growth factor receptor 1 (Homo sapiens, UniProt P17948); assay: not given; assay type: cell-based; settings: huvec; further: in other assays of this panel Not Active means under 50% inhibition at 10 µM
Sequence (P17948 whole entry): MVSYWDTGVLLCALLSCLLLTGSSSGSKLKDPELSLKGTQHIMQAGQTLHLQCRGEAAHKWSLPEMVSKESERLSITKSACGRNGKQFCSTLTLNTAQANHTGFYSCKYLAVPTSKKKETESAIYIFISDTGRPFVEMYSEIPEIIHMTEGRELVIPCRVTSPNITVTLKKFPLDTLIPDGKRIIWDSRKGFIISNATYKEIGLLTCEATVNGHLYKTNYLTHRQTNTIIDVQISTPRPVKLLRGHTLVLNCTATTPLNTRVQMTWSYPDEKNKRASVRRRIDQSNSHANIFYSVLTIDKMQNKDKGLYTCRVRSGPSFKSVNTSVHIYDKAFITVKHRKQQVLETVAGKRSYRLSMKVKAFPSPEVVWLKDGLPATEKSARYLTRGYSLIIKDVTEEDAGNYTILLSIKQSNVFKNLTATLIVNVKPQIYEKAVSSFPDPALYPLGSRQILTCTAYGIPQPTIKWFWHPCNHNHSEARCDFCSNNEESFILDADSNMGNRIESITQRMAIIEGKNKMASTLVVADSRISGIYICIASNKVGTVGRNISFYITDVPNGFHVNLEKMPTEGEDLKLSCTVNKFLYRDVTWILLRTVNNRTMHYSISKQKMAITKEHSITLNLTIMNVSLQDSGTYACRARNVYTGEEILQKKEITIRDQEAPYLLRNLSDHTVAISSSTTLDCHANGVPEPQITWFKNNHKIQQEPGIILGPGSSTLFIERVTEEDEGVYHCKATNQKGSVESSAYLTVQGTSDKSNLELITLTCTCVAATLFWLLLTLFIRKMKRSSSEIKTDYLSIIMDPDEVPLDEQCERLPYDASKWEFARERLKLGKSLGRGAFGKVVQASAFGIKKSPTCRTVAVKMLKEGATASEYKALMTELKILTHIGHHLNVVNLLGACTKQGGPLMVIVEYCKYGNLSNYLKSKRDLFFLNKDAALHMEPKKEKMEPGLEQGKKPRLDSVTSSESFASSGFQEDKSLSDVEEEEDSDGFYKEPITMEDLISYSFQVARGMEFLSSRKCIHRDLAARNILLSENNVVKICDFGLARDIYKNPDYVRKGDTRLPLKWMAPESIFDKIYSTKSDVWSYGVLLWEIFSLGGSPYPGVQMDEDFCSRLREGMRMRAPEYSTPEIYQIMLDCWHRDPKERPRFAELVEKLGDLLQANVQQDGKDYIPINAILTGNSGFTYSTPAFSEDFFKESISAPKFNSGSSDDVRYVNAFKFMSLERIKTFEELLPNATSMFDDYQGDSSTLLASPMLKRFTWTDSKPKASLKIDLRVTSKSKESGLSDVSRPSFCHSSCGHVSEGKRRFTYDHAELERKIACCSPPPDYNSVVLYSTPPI

SMILES	IC50
CC(=O)S[C@@H]1CC2=CC(=O)CC[C@]2(C)[C@H]2CC[C@@]3(C)[C@@H](CC[C@@]34CCC(=O)O4)[C@H]12 [SPIRONOLACTONE]	Not Active
CC(C)[C@H](N)C(=O)OCCOCn1cnc2c(=O)nc(N)[nH]c21 [VALACYCLOVIR]	Not Active

target: Mitogen-activated protein kinase 14 (Homo sapiens, UniProt Q16539); assay: not given; parameters: species or system Escherichia coli; settings: not given
Sequence (Q16539 whole entry): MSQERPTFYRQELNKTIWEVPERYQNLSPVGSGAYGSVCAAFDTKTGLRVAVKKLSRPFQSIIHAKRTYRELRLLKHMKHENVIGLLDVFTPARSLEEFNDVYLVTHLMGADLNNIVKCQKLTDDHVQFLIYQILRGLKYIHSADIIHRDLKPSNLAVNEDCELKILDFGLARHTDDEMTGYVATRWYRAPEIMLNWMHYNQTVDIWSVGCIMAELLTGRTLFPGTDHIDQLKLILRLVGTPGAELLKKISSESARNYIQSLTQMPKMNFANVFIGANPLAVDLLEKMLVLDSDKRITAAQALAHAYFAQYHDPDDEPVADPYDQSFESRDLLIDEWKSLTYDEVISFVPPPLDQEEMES

SMILES	IC50
CC(=O)S[C@@H]1CC2=CC(=O)CC[C@]2(C)[C@H]2CC[C@@]3(C)[C@@H](CC[C@@]34CCC(=O)O4)[C@H]12 [SPIRONOLACTONE]	Not Active
CC(C)[C@H](N)C(=O)OCCOCn1cnc2c(=O)nc(N)[nH]c21 [VALACYCLOVIR]	Not Active

target: T4, Alpha-2A adrenergic receptor (Homo sapiens, UniProt P08913); assay: not given; assay type: cell membranes, Sf9, Membrane; settings: sf9; further: in other assays of this panel Not Active means under 50% inhibition at 10 µM
T4 sequence (P08913 whole entry): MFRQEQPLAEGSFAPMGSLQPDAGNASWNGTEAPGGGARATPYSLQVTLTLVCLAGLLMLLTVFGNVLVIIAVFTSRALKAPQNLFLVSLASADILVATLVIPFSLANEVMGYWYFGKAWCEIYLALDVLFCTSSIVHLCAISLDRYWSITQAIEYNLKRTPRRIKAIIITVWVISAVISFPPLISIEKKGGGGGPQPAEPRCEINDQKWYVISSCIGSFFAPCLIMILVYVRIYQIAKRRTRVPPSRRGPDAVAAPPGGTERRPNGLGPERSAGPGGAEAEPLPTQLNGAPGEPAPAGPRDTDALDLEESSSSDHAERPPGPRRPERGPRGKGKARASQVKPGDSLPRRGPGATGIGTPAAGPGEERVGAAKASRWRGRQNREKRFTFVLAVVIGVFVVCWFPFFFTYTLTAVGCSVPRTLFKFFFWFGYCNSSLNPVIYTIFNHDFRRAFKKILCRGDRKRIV

SMILES	IC50
CC(=O)S[C@@H]1CC2=CC(=O)CC[C@]2(C)[C@H]2CC[C@@]3(C)[C@@H](CC[C@@]34CCC(=O)O4)[C@H]12 [SPIRONOLACTONE]	Not Active
CC(C)[C@H](N)C(=O)OCCOCn1cnc2c(=O)nc(N)[nH]c21 [VALACYCLOVIR]	Not Active

target: C-C chemokine receptor type 5 (Homo sapiens, UniProt P51681); assay: not given; assay type: cell membranes, Membrane; settings: hek293; further: in other assays of this panel Not Active means under 50% inhibition at 10 µM
Sequence (P51681 whole entry): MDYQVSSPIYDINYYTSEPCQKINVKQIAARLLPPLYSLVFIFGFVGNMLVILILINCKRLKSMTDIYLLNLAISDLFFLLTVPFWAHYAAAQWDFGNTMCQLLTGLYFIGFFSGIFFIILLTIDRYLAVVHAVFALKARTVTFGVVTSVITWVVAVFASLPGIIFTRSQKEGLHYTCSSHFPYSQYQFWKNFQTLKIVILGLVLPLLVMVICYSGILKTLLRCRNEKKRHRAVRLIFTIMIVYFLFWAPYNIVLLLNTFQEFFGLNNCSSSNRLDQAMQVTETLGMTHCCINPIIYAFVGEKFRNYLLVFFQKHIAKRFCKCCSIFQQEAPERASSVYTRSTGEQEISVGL

SMILES	IC50
CC(=O)S[C@@H]1CC2=CC(=O)CC[C@]2(C)[C@H]2CC[C@@]3(C)[C@@H](CC[C@@]34CCC(=O)O4)[C@H]12 [SPIRONOLACTONE]	Not Active
CC(C)[C@H](N)C(=O)OCCOCn1cnc2c(=O)nc(N)[nH]c21 [VALACYCLOVIR]	Not Active

target: D(1A) dopamine receptor (Homo sapiens, UniProt P21728); assay: DRUGMATRIX: Dopamine D1 radioligand binding (ligand: [3H] SCH-23390); assay type: cell membranes, CHO, Membrane; settings: cho; Not Active = under 50% inhibition at 10 µM
Sequence (P21728 whole entry): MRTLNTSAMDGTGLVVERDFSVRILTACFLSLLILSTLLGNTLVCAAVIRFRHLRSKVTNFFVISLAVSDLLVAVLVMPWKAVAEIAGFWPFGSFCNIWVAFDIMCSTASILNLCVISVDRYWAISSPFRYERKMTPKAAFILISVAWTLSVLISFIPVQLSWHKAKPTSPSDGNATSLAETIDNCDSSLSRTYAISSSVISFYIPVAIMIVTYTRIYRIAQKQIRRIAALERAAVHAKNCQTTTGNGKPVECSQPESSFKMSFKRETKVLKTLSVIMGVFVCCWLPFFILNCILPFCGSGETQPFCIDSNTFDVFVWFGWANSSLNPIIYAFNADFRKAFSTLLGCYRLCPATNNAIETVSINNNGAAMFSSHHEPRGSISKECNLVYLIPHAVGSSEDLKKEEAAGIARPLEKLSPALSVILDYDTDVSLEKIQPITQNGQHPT

SMILES	IC50
CC(=O)S[C@@H]1CC2=CC(=O)CC[C@]2(C)[C@H]2CC[C@@]3(C)[C@@H](CC[C@@]34CCC(=O)O4)[C@H]12 [SPIRONOLACTONE]	Not Active
CC(C)[C@H](N)C(=O)OCCOCn1cnc2c(=O)nc(N)[nH]c21 [VALACYCLOVIR]	Not Active

target: Aldo-keto reductase family 1 member B1 (Rattus norvegicus, UniProt P07943); assay: not given; assay type: tissue-based, Lens of camera-type eye; settings: not given

SMILES	IC50
CC(=O)S[C@@H]1CC2=CC(=O)CC[C@]2(C)[C@H]2CC[C@@]3(C)[C@@H](CC[C@@]34CCC(=O)O4)[C@H]12 [SPIRONOLACTONE]	Not Active
CC(C)[C@H](N)C(=O)OCCOCn1cnc2c(=O)nc(N)[nH]c21 [VALACYCLOVIR]	Not Active

tested on: not listed separately; assay: DRUGMATRIX: Glutamate, AMPA radioligand binding (ligand: [3H] AMPA); assay type: cell membranes, Rattus norvegicus, Wistar, Cerebral cortex, Membrane; settings: Not Active = under 50% inhibition at 10 µM

SMILES	IC50	Ki
CC(=O)S[C@@H]1CC2=CC(=O)CC[C@]2(C)[C@H]2CC[C@@]3(C)[C@@H](CC[C@@]34CCC(=O)O4)[C@H]12 [SPIRONOLACTONE]	Not Active	Not Active
CC(C)[C@H](N)C(=O)OCCOCn1cnc2c(=O)nc(N)[nH]c21 [VALACYCLOVIR]	Not Active	Not Active

— ChEMBL document CHEMBL1909046, “DrugMatrix in vitro pharmacology data”
